The text below walks through data of patent US8796268B2, “Heteroaryls and uses thereof” (Millennium Pharmaceuticals, Inc., priority 2010, dated 2014).

Common to all, as to format: biochemical
One assay addresses T1, Human PI3K alpha (Homo sapiens, UniProt P42336).
T1 construct: His (N); host or cells: SF9 insect cells (baculovirus)
Put plainly: Human PI3K alpha enzyme assay (HTRF). Particulars: concentration not given, b1387 states 1.1 μM for PI3K α and β; for inhibition at 1.1 µM: read-out: p110 alpha Percent Inhibition. In general terms: Time-resolved FRET reads energy transfer from a long-lived donor to a nearby acceptor.

The target in another assay is T2, Human PI3K beta (Homo sapiens, UniProt P42338).
T2 construct: His (N); host or cells: SF9 insect cells (baculovirus)
Put plainly: Human PI3K beta enzyme assay (HTRF). The note with it: concentration not given, b1387 states 1.1 μM for PI3K α and β; for inhibition at 1.1 µM: read-out: p110 beta Percent Inhibition. A digest of the protocol: (§1)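 Compounds were mixed with 25 uM ATP, then with 3.5 uM di-C8 PI(4,5)P2 and His-tagged PI3K isoform (β 5.25 nM, δ 0.75 nM, γ 5 nM) at pH 7.00. After 30 min at room temperature, EDTA stopped the reaction and PIP3 was measured by HTRF over 1 h.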

The next assay concerns the target T3, Human PI3K gamma (Homo sapiens, UniProt P48736).
T3 construct: His (N); host or cells: SF9 insect cells (baculovirus)
Put plainly: Human PI3K gamma enzyme assay (HTRF). The note with it: concentration not given, b1389 states 1.0 μM for PI3K δ and γ; for inhibition at 1 µM: read-out: p110 gamma Percent Inhibition. A digest of the protocol: as §1

The next assay addresses T4, Human PI3K delta (Homo sapiens, UniProt O00329).
T4 construct: His (N); host or cells: SF9 insect cells (baculovirus)
Put plainly: Human PI3K delta enzyme assay (HTRF). The note with it: concentration not given, b1389 states 1.0 μM for PI3K δ and γ; for inhibition at 1 µM: read-out: p110 delta Percent Inhibition. A digest of the protocol: as §1

T4 sequence (O00329 whole entry): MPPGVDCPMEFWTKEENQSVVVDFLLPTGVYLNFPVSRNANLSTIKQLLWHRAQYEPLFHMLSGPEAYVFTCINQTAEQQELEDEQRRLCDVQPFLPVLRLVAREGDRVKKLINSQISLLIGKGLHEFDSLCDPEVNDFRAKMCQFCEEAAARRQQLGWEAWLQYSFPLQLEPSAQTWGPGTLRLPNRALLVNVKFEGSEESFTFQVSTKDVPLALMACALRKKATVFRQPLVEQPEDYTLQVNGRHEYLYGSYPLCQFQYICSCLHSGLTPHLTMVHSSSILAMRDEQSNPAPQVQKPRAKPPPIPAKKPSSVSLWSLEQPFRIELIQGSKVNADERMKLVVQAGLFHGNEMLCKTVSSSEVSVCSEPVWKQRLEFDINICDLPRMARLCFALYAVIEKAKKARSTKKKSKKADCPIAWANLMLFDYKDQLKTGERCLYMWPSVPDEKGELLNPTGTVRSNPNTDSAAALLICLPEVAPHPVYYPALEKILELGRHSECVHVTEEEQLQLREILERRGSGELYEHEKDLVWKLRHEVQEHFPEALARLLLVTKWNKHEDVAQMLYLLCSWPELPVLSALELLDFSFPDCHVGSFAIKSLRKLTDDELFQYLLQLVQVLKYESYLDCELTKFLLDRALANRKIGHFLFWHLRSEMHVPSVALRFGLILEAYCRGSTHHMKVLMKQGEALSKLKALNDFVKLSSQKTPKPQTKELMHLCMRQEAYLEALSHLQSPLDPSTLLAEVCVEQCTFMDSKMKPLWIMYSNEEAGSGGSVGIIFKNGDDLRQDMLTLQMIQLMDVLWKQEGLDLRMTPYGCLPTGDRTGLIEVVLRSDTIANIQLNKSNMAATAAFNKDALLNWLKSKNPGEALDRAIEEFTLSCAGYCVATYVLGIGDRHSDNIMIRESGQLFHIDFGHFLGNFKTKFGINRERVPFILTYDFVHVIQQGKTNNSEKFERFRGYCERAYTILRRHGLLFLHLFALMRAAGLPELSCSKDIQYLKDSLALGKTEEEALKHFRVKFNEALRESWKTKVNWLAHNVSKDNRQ
T4 sequence (P27986 whole entry partner): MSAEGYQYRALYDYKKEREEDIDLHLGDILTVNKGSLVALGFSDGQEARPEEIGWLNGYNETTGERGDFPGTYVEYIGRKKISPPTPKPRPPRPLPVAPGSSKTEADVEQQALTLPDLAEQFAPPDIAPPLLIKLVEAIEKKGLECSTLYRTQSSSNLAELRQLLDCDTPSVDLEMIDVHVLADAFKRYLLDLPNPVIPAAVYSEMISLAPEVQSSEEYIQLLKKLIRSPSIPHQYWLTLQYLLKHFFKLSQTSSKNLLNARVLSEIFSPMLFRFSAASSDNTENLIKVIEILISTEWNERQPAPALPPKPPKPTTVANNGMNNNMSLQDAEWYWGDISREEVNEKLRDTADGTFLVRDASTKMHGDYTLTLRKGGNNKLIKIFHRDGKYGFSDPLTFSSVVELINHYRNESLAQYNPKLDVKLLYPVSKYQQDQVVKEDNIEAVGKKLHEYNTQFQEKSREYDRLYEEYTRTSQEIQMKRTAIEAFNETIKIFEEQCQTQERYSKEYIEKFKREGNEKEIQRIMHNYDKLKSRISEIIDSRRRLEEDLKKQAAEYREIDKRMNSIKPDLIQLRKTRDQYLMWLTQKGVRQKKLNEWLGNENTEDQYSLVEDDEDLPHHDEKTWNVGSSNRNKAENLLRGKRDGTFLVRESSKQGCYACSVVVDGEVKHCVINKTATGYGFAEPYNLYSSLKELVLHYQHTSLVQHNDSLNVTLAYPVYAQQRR
T3 sequence (P48736 whole entry): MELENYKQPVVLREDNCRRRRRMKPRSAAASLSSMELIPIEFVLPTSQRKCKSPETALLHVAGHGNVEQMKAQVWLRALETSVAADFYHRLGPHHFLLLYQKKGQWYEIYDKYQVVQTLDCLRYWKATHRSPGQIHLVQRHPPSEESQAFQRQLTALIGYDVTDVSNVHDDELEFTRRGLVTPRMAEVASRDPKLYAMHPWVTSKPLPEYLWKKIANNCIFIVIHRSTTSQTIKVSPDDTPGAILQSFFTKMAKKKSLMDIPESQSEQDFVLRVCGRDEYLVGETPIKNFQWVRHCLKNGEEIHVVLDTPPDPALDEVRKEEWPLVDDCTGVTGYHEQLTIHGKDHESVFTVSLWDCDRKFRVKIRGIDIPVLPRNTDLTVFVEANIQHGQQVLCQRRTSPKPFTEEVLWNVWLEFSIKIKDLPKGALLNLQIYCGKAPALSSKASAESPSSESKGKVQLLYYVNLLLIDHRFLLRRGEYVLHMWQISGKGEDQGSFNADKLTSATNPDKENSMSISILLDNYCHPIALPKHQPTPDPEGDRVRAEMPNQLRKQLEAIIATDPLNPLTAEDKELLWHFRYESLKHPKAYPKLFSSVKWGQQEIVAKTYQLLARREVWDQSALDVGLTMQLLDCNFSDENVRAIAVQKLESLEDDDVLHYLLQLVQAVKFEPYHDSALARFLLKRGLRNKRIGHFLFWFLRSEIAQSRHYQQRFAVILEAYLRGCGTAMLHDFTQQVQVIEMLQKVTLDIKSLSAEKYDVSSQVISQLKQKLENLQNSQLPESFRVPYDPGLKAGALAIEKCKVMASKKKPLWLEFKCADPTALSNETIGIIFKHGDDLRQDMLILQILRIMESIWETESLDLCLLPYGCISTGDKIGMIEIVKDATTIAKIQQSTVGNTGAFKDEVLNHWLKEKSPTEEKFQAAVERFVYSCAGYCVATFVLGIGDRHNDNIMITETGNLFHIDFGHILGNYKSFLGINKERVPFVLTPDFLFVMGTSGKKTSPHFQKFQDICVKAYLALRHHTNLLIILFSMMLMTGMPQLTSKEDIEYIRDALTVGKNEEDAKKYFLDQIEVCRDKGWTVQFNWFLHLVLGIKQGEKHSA
T2 sequence (P42338 whole entry): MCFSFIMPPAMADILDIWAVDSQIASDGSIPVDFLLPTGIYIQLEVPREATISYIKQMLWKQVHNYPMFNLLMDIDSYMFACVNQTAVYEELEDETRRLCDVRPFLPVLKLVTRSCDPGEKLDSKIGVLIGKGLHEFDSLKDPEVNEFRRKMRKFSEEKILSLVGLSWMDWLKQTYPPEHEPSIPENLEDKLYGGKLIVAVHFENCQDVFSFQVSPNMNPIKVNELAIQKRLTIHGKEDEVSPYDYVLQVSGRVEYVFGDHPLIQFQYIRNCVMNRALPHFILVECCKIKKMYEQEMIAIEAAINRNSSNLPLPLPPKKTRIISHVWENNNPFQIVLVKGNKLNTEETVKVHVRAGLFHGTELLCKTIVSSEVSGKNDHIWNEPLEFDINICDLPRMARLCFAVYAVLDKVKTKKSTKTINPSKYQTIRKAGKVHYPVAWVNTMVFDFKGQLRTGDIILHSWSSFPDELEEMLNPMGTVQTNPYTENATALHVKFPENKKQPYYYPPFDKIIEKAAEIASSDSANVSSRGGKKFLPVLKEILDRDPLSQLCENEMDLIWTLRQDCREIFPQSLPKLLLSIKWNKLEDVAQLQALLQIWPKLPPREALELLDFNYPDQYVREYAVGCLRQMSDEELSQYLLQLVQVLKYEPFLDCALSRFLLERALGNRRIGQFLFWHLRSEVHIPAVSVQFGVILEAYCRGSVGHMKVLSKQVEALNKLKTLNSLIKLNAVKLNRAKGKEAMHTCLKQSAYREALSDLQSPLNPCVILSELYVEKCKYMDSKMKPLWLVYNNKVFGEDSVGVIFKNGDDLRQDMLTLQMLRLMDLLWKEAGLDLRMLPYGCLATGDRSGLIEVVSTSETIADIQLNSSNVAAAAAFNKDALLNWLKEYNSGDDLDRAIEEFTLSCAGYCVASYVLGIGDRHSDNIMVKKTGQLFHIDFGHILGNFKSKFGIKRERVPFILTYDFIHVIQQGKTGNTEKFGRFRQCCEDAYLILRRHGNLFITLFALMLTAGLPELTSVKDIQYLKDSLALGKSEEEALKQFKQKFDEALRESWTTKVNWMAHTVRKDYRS
T2 sequence (P27986 whole entry partner): as the sequence (P27986 whole entry partner) above
T1 sequence (P42336 whole entry): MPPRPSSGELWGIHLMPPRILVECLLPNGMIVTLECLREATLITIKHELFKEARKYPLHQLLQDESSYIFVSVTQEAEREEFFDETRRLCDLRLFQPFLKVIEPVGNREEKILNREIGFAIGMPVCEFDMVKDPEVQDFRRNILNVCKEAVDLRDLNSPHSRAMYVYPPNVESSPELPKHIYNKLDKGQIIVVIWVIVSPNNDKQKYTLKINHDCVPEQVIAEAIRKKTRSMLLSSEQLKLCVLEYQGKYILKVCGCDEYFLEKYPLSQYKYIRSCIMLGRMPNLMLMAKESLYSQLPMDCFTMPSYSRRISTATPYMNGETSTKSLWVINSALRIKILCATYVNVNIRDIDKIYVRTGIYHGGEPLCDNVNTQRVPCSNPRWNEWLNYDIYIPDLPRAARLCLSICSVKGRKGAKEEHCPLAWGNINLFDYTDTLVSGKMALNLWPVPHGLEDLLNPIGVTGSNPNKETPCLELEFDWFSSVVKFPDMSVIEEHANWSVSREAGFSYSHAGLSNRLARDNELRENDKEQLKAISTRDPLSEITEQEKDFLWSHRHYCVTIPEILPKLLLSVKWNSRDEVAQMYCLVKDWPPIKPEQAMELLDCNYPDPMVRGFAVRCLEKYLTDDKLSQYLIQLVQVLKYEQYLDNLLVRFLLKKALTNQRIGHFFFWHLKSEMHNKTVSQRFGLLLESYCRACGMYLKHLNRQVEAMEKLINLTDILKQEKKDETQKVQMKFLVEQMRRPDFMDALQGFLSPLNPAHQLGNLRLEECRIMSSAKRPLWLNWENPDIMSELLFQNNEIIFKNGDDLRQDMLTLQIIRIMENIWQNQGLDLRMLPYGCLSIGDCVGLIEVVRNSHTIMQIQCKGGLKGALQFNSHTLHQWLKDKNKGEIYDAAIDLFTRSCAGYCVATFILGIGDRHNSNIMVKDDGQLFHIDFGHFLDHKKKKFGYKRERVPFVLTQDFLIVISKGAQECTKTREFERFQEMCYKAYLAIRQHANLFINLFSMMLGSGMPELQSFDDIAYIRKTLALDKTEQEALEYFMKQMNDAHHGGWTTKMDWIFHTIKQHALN
T1 sequence (P27986 whole entry partner): as the sequence (P27986 whole entry partner) above

`CC(=O)Nc1cc(-c2cc(C(c3ccc(Cl)cc3)N3CC(CCN)C3)c(-c3nnc[nH]3)s2)ccn1` (centres unmarked) [Compound 270]: the inhibition at 1.1 µM at Human PI3K alpha is 81%; at Human PI3K beta, 114%. The results for the inhibition at 1 µM on Human PI3K gamma and on Human PI3K delta were 24% and 111%, respectively.
For `Cc1ccc(C(O)c2cc(-c3ccncc3)sc2-c2nnc[nH]2)s1` (centres unmarked) [Compound 271], in that order: 35%, 82%, 8% and 63%.
For the compound `COc1ccc(C(O)c2cc(-c3ccncc3)sc2-c2nnc[nH]2)cn1` (centres unmarked) [Compound 272], the inhibition at 1.1 µM at Human PI3K alpha amounted to 70%; at Human PI3K beta it was 96%. The inhibition at 1 µM at Human PI3K gamma was 10%; at Human PI3K delta it was 70%.
Regarding `CC(=O)Nc1cc(-c2cc(C(O)(C3=CCOCC3)c3ccc(Cl)cc3)c(-c3nnc[nH]3)s2)ccn1` (centres unmarked) [Compound 273], the inhibition at 1.1 µM amounted to 88% on Human PI3K alpha and 73% at Human PI3K beta. Further, the inhibition at 1 µM was found to be 7% on Human PI3K gamma and 98% at Human PI3K delta.
For `CC(=O)Nc1cc(-c2cc(C(c3ccc(Cl)cc3)N(C)C3CNC3)c(-c3nnc[nH]3)s2)ccn1` (centres unmarked) [Compound 274], in that order: 98%, 109%, 38% and 107%.
For `OC(c1cc(-c2ccncc2)sc1-c1nnc[nH]1)c1c(F)cccc1Cl` (centres unmarked) [Compound 275] the same measures were 17%, 47%, 14% and 44%.
For `OC(c1ccccc1-c1cccnc1)c1cc(-c2ccncc2)sc1-c1nnc[nH]1` (centres unmarked) [Compound 276], in that order: 4%, 15%, 6% and 12%.
On to `CC(=O)Nc1cc(-c2cc(C(c3ccc(Cl)cc3)N(C)C3CNC3)c(-c3nnc[nH]3)s2)ccn1` (centres unmarked) [Compound 277], for which the “p110 alpha Percent Inhibition” value on Human PI3K alpha is on record as 95%. Besides, the “p110 beta Percent Inhibition” value on Human PI3K beta stood at 97%. The “p110 gamma Percent Inhibition” value at Human PI3K gamma is recorded as 55%. Moreover, the “p110 delta Percent Inhibition” value at Human PI3K delta is given as 116%.
Turning to `COc1cc(C(O)c2cc(-c3ccnc(Cl)c3)sc2-c2nnc[nH]2)c(F)cc1Cl` (centres unmarked) [Compound 278], on Human PI3K alpha, the “p110 alpha Percent Inhibition” value was 23%. Besides, the inhibition at 1.1 µM on Human PI3K beta was found to be 98%. Further, on Human PI3K gamma, the “p110 gamma Percent Inhibition” value is on record as 35%. For the same compound, on Human PI3K delta, the “p110 delta Percent Inhibition” value is 83%.
Turning to `COc1cc(C(O)c2cc(-c3ccncc3)sc2-c2nnc[nH]2)c(F)cc1Cl` (centres unmarked) [Compound 279], the figures for the inhibition at 1.1 µM at Human PI3K alpha and at Human PI3K beta were 19% and 106%, respectively. In addition, the inhibition at 1 µM is 42% on Human PI3K gamma and 78% at Human PI3K delta.
For `OC(c1ccc2ccccc2c1)c1cc(-c2ccncc2)sc1-c1nnc[nH]1` (centres unmarked) [Compound 280] the same measures were 35%, 106%, 34% and 92%.
For `OC(c1cc(-c2ccncc2)sc1-c1nnc[nH]1)c1c(F)ccc2ccccc12` (centres unmarked) [Compound 281], the “p110 alpha Percent Inhibition” value on Human PI3K alpha came out at 52%. Besides, the inhibition at 1.1 µM on Human PI3K beta stood at 96%. The “p110 gamma Percent Inhibition” value on Human PI3K gamma is recorded as 56%. The “p110 delta Percent Inhibition” value at Human PI3K delta is reported as 97%.
As to `COc1cc(C(O)c2cc(-c3ccnnc3)sc2-c2nnc[nH]2)c(F)cc1Cl` (centres unmarked) [Compound 282], the inhibition at 1.1 µM on Human PI3K alpha came out at 14%; on Human PI3K beta it was 99%. The “p110 gamma Percent Inhibition” value on Human PI3K gamma was 21%. For the same compound, the “p110 delta Percent Inhibition” value on Human PI3K delta was 64%.
As for `OC(c1cc2ccccc2cc1F)c1cc(-c2ccncc2)sc1-c1nnc[nH]1` (centres unmarked) [Compound 284], the “p110 alpha Percent Inhibition” value on Human PI3K alpha was found to be 39%. Besides, the “p110 beta Percent Inhibition” value on Human PI3K beta came out at 114%. Further, the “p110 gamma Percent Inhibition” value at Human PI3K gamma was found to be 66%. The “p110 delta Percent Inhibition” value on Human PI3K delta is 110%.
